# Measured values: US11415579B2, “Assay for measuring a rate of reaction between a target and a ligand candidate” (Imperial College Innovations Ltd., priority 2016, dated 2022)
# Where “and” joins values, the source holds several entries; their conditions need not be identical. Equal values may be shown once.
# Experiments:
# [1] = Kinetic thiol consumption assay with model thiol glutathione; format: physicochemical; set-up: Rate constant with glutathione (k(GSH)): unit not given here; conditions: for Rate constant with glutathione (k(GSH)): 500 μM ligand, 5 μM thiol, phosphate buffer pH 8; for Rate constant with Glutathione: Protein: Glutathione, cysteine position NA, in h-1
# Method in brief: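 First, 5 μM glutathione in degassed phosphate buffer (pH 8) receives immobilized TCEP beads (2% v/v). Then acrylamide is added and plates incubate 1 h at room temperature. Finally, fluorescence (380/470 nm) is normalized and fitted to first-order decay for rate constants.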
# [2] = biological target: T1, human cyclin-dependent kinase 2 (Cdk2) (Homo sapiens, UniProt P24941); assay: Kinetic thiol consumption assay with wild type Cdk2 (C177); format: binding; set-up: key to Rate enhancement, Cdk2 WT: k(Cdk2) divided by k(model thiol); Rate constant with Cdk2 (k(Cdk2)): unit not given here; conditions: for Rate constant with Cdk2 (k(Cdk2)): 500 μM ligand, 5 μM thiol, phosphate buffer pH 8; for Rate enhancement, Cdk2 WT: no additional mutations; for Rate constant with Cdk2 WT: Protein: Cdk2, cysteine position WT, in h^-1; for k(Cdk2)/k(Cdk2_mut) rate enhancement: model thiol Cdk2[C177A, F80C, K278C]; for k(Cdk2)/k(GSH) rate enhancement: model thiol glutathione
# T1 construct: poly-histidine; made in house; host or cells: E. coli
# Method in brief: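 Thiol 5 μM (Cdk2 or model thiol), degassed phosphate buffer pH 8, TCEP beads 2% v/v. Plates incubated 1 h RT, ex/em 380/470 nm. First-order decay fit → rate constant; ratio Cdk2/model thiol = rate enhancement.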
# Cdk2[C177A, F80C, K278C] = biological target: T2, Cdk2[C177A, F80C, K278C] (Homo sapiens, UniProt P24941, C177A/F80C/K278C); assay: Kinetic thiol consumption assay with mutant Cdk2 as model thiol; format: binding; set-up: unit not given here; conditions: 500 μM ligand, 5 μM thiol, phosphate buffer pH 8
# T2 construct: poly-histidine; made in house; host or cells: E. coli
# Method in brief: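 Model thiol: His-tagged human Cdk2 C177A/F80C/K278C (two engineered surface cysteines), E. coli-expressed, 5 μM in degassed phosphate buffer pH 8 with immobilized TCEP beads (2% v/v). Fluorescence (ex/em 380/470 nm) followed over time at room temperature, normalized to DMSO/thiol control. First-order decay fit gives rate constants.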
# Cdk2(C177A, F80C) = biological target: T3, Cdk2(C177A, F80C) (Homo sapiens, UniProt P24941, C177A/F80C); assay: Kinetic thiol consumption assay with Cdk2 mutant F80C, incl. kobs versus concentration (Kd, k2); format: binding; set-up: key to Rate enhancement, Cdk2 F80C: Cdk2 rate constant divided by model-thiol rate constant; conditions: for Rate enhancement, Cdk2 F80C / Rate constant with Cdk2 F80C: additional mutation C177A; for Rate constant with Cdk2 F80C: Protein: Cdk2, cysteine position F80C, in h^-1
# T3 construct: poly-histidine; made in house; host or cells: E. coli
# Method in brief: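 His-tagged Cdk2(C177A/F80C) from E. coli or model thiol, 5 μM in degassed phosphate buffer pH 8 with TCEP beads, reacted with acrylamide ligands; fluorescence (ex/em 380/470 nm) normalized to DMSO control and fitted to first-order decay for kobs. Kd and k2 obtained from hyperbolic fit of kobs versus ligand concentration.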
# Cdk2(H71C) (C177A) = biological target: T4, Cdk2(H71C) (C177A) (Homo sapiens, UniProt P24941, C177A/H71C); assay: Kinetic thiol consumption assay with Cdk2 mutant H71C; format: binding; set-up: key to Rate enhancement, Cdk2 H71C: rate constant with Cdk2 ÷ rate constant with model thiol (fold); conditions: for Rate enhancement, Cdk2 H71C / Rate constant with Cdk2 H71C: additional mutation C177A; for Rate constant with Cdk2 H71C: Protein: Cdk2, cysteine position H71C, in h^-1
# T4 construct: poly-histidine; made in house; host or cells: E. coli
# Method in brief: (§1)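 5 μM thiol, degassed phosphate pH 8, 2% v/v immobilized TCEP beads; 1 h RT; fluorescence ex 380/em 470 nm; normalized vs DMSO/thiol-only; first-order exponential decay fit → rate constant; Cdk2 k / model-thiol k = rate enhancement per acrylamide.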
# Cdk2(S276C) (C177A) = biological target: T5, Cdk2(S276C) (C177A) (Homo sapiens, UniProt P24941, C177A/S276C); assay: Kinetic thiol consumption assay with Cdk2 mutant S276C; format: binding; set-up: key to Rate enhancement, Cdk2 S276C: rate constant with Cdk2 ÷ rate constant with model thiol (fold); conditions: for Rate enhancement, Cdk2 S276C / Rate constant with Cdk2 S276C: additional mutation C177A; for Rate constant with Cdk2 S276C: Protein: Cdk2, cysteine position S276C, in h^-1
# T5 construct: poly-histidine; made in house; host or cells: E. coli
# Method in brief: as §1
# Cdk2(N272C) (C177A) = biological target: T6, Cdk2(N272C) (C177A) (Homo sapiens, UniProt P24941, C177A/N272C); assay: Kinetic thiol consumption assay with Cdk2 mutant N272C; format: binding; set-up: key to Rate enhancement, Cdk2 N272: rate constant with Cdk2 ÷ rate constant with model thiol (fold); conditions: for Rate enhancement, Cdk2 N272: Cdk2 N272, additional mutation C177A; for Rate constant with Cdk2 N272C: Protein: Cdk2, cysteine position N272C, additional mutation C177A, in h^-1
# T6 construct: poly-histidine; made in house; host or cells: E. coli
# Method in brief: as §1
# Cdk2(T182C) (C177A) = biological target: T7, Cdk2(T182C) (C177A) (Homo sapiens, UniProt P24941, C177A/T182C); assay: Kinetic thiol consumption assay with Cdk2 mutant T182C; format: binding; set-up: key to Rate enhancement, Cdk2 T182C: rate constant with Cdk2 ÷ rate constant with model thiol (fold); conditions: for Rate enhancement, Cdk2 T182C / Rate constant with Cdk2 T182C: additional mutation C177A; for Rate constant with Cdk2 T182C: Protein: Cdk2, cysteine position T182C, in h^-1
# T7 construct: poly-histidine; made in house; host or cells: E. coli
# Method in brief: as §1
# Cdk2(R122C) (C177A) = biological target: T8, Cdk2(R122C) (C177A) (Homo sapiens, UniProt P24941, C177A/R122C); assay: Kinetic thiol consumption assay with Cdk2 mutant R122C; format: binding; set-up: key to Rate enhancement, Cdk2 R122C: rate constant with Cdk2 ÷ rate constant with model thiol (fold); conditions: for Rate enhancement, Cdk2 R122C / Rate constant with Cdk2 R122C: additional mutation C177A; for Rate constant with Cdk2 R122C: Protein: Cdk2, cysteine position R122C, in h-1
# T8 construct: poly-histidine; made in house; host or cells: E. coli
# Method in brief: as §1
# Cdk2(S181C) (C177A) = biological target: T9, Cdk2(S181C) (C177A) (Homo sapiens, UniProt P24941, C177A/S181C); assay: Kinetic thiol consumption assay with Cdk2 mutant S181C; format: binding; set-up: key to Rate enhancement, Cdk2 S181C: rate constant with Cdk2 ÷ rate constant with model thiol (fold); conditions: for Rate enhancement, Cdk2 S181C / Rate constant with Cdk2 S181C: additional mutation C177A; for Rate constant with Cdk2 S181C: Protein: Cdk2, cysteine position S181C, in h^-1
# T9 construct: poly-histidine; made in house; host or cells: E. coli
# Method in brief: as §1
# Cdk2(F80C, C177A) [3] = biological target: T10, Cdk2(F80C, C177A) (Homo sapiens, UniProt P24941, C177A/F80C); assay: Intact protein mass spectrometry of labelling; format: binding; conditions: after 2 hours of incubation
# T10 construct: poly-histidine; made in house; host or cells: E. coli
# Excerpt: Mass spectrometry and X-ray crystallography were used to validate the binding of a hit ligand identified by the present method.
# From the screen of Cdk2(F80C, C177A), we identified EL1071 as a hit molecule (rate enhancement relative to GSH=60.5).
# Cdk2(F80C, C177A) [4] = biological target: T10, Cdk2(F80C, C177A); assay: Kinase assay; format: biochemical; conditions: Cdk2(F80C, C177A) labelled with ligand
# Excerpt: Again, 1-Cdk2 refers to Cdk2(F80C, C177A) labelled with EL1071 (FIG. 10(c)). Finally, the EL1071-Cdk2(F80C, C177A) complex was crystallized and the structure determined by X-ray crystallography (FIG. 11). This confirms that the ligand binds to the cysteine residue at F80C and blocks the protein's active site leading to the observed inhibition.
# [5] = system: Cdk2 constructs (except Cdk(WT)); assay: Average of several thiols (Cdk2 constructs except WT) as model thiol; format: binding, human; conditions: average over all Cdk2 constructs except Cdk2(WT)
# Protocol: In Example 1 rate enhancements were calculated relative to the control thiol, glutathione.
# As an example, the rate constant for ligand candidate EL1157 in reaction with all the Cdk2 constructs (except Cdk(WT)) were averaged and then compared to the rate constant with Cdk2(WT).
SMILES,Rate constant with glutathione (k(GSH)) [1],Rate constant with Glutathione [1],Rate constant with Cdk2 (k(Cdk2)) [2],"Rate enhancement, Cdk2 WT [2]",Rate constant with Cdk2 WT [2],k(Cdk2)/k(Cdk2_mut) rate enhancement [2],k(Cdk2)/k(GSH) rate enhancement [2],"Rate constant with Cdk2[C177A, F80C, K278C] (k(Cdk2_mut)) (Cdk2[C177A, F80C, K278C])","Rate enhancement, Cdk2 F80C (Cdk2(C177A, F80C))","Rate constant with Cdk2 F80C (Cdk2(C177A, F80C))","Rate enhancement, Cdk2 H71C (Cdk2(H71C) (C177A))",Rate constant with Cdk2 H71C (Cdk2(H71C) (C177A)),"Rate enhancement, Cdk2 S276C (Cdk2(S276C) (C177A))",Rate constant with Cdk2 S276C (Cdk2(S276C) (C177A)),"Rate enhancement, Cdk2 N272 (Cdk2(N272C) (C177A))",Rate constant with Cdk2 N272C (Cdk2(N272C) (C177A)),"Rate enhancement, Cdk2 T182C (Cdk2(T182C) (C177A))",Rate constant with Cdk2 T182C (Cdk2(T182C) (C177A)),"Rate enhancement, Cdk2 R122C (Cdk2(R122C) (C177A))",Rate constant with Cdk2 R122C (Cdk2(R122C) (C177A)),other results
C=CC(=O)N1CCCc2cc(C(=O)OC)ccc21 [EL-1071],0.051 and 0.05049,0.05081,0.433,8.522,0.433,1.341,8.5 and 8.576,0.323,60.48,3.073,7.215,0.3666,1.09,0.05538,0.6083,0.03091,7.764,0.3945,0.2848,0.01447,"hit classification, Example 1 ([2]; hits defined as kCdk2/kGSH>5.8 (3 standard deviations over the mean)): hit fragment; hit classification against Cdk2(F80C, C177A) (Cdk2(C177A, F80C)): hit molecule; rate enhancement relative to GSH (Cdk2(C177A, F80C); Cdk2(F80C, C177A) versus GSH): 60.5; Rate enhancement, Cdk2 S181C (Cdk2(S181C) (C177A)): 0.5036; Rate constant with Cdk2 S181C (Cdk2(S181C) (C177A)): 0.02559; modification of Cdk2(F80C, C177A) by intact protein mass spectrometry (Cdk2(F80C, C177A) [3]): completely monomodified; inhibition of kinase activity (Cdk2(F80C, C177A) [4]): completely inhibited"
C=CC(=O)N1CCN(C(=O)OC(C)(C)C)c2ccccc21 [EL-1157],0.126,0.06726,0.2006,2.982,0.2006,0.6586,1.592,0.3046,0.5847,0.03933,0.3892,0.02618,1.046,0.07038,0.04255,0.002862,2.337,0.1572,0.07164,0.004819,"Rate constant k(Cdk2(WT)) [2]: 0.2006 h⁻¹; k(Cdk2(WT))/k(average) ([2]; average of multiple Cdk2 mutants as control thiol): 4.46; Rate constant k(Cdk2(F80C)) (Cdk2(C177A, F80C)): 0.0393 h⁻¹; Rate constant k(Cdk2(H71C)) (Cdk2(H71C) (C177A)): 0.0261 h⁻¹; Rate constant k(Cdk2(S276C)) (Cdk2(S276C) (C177A)): 0.0704 h⁻¹; Rate constant k(Cdk2(N272C)) (Cdk2(N272C) (C177A)): 0.0029 h⁻¹; Rate constant k(Cdk2(T182C)) (Cdk2(T182C) (C177A)): 0.1572 h⁻¹; Rate constant k(Cdk2(R122C)) (Cdk2(R122C) (C177A)): 0.0048 h⁻¹; Rate constant k(Cdk2(S181C)) (Cdk2(S181C) (C177A)): 0.0138 h⁻¹; Rate enhancement, Cdk2 S181C (Cdk2(S181C) (C177A)): 0.2053; Rate constant with Cdk2 S181C (Cdk2(S181C) (C177A)): 0.01381; Rate constant k(average) [5]: 0.0449 h⁻¹"
